Structures are written as SMILES. Calls of active or inactive are those of the source. How the calls were made is not given here.

Broadly, the inhibition is the relative decrease from the control value, in per cent.

The nature of one assay: inhibitors of TNFa-induced VCAM1 expression, confirmation, imaging, TNFa stimulus, retest and dose response (AID 1013).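 On cell count: compound on cells 1 h before TNFa then 24 h more.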 Particulars: TNFa-stimulated cells, VCAM1 expression imaging; at 2 µM; stronger effect = higher value.
As to `COc1cc(NC(=O)c2ccc(COCC(F)(F)F)o2)cc(OC)c1OC`, the inhibition was 20.7% (inactive).

In the case of `CCCCSc1nc(C)cc(SCC(=O)N/N=C/c2cccc(OC)c2O)n1`, the inhibition was 22.8% (inactive).

Take `O=C(O)C1CC=CCC1C(=O)N1CCCC1` (stereo unspecified): the inhibition was -1.4% (inactive).

For `CCn1c(=O)cc(OCC(=O)NCc2ccco2)c2ccccc21`, the inhibition was -6.7% (inactive).

For `O=C(NC(Cc1c[nH]c2ccccc12)C(=O)O)c1ccco1` (stereo unspecified), the inhibition was -11.2% (inactive).

For `CCCCC(=O)NC(=S)Nc1ccccc1C(=O)Nc1ccccc1`, the inhibition was -2.5% (inactive).

For the molecule `COc1ccc(CCN(Cc2cc3cccc(C)c3[nH]c2=O)C(=O)N2CCCC2)cc1OC`, the inhibition is 5.6% (inactive).

Consider `Clc1ccc(-n2ncc3c(NCc4ccc5c(c4)OCO5)ncnc32)cc1`, for which the inhibition is 5.1% (inactive).

As to `Cc1cccc(NC(=O)CC2SC(=O)N(c3ccccc3)C2=O)c1` (stereo unspecified), the inhibition was 3.9% (inactive).

In the case of `Cc1cc(N2CCOCC2)c2c(N)c(C)cc(C)c2n1`, the inhibition is -11% (inactive).

With `O=C(O)Cc1ccc(NC(=O)C2CC=CCC2C(=O)O)cc1` (stereo unspecified), the inhibition was 4.4% (inactive).

On to `CC(NC(=O)COC(=O)Cc1ccsc1)C1CC2CCC1C2` (stereo unspecified), for which the inhibition is 3.4% (inactive).

With `CN1CCCCc2c1[nH]c1ccccc1c2=O`, the inhibition is 5.5% (inactive).

Turning to `CCOC(=O)c1ccc(-n2c(=S)sc3c(=O)[nH]c(C)nc32)cc1`, the inhibition is -10.7% (inactive).

Regarding `NCCN1CCN(CCN)CC1`, the inhibition was -8.3% (inactive).

Take `COc1ccc2[nH]c(=O)c(CN(C(=O)c3ccncc3)C(C)C)cc2c1`: the inhibition is -5.2% (inactive).

As for `Cc1cccnc1N(C(=O)Nc1ccccc1)C1=NCC(C)(C)S1`, the inhibition was -11.8% (inactive).

With `O=C(COc1ccccc1-c1ccccc1)N/N=C/c1cccc2ccccc12`, the inhibition was 76.4% (inactive).

Consider `CCOC(=O)N1CCN(C(=O)COc2ccc(Cl)cc2C)CC1`, for which the inhibition was 5.2% (inactive).

With `COc1ccc(-c2cc(=O)[nH]c(NCc3ccccc3)n2)cc1`, the inhibition was 15.6% (inactive).

Take `O=C(COC(=O)C1(c2ccccc2F)CCCC1)NC1CCS(=O)(=O)C1` (stereo unspecified): the inhibition was -6.3% (inactive).

With `CCn1c(CN2CCN(c3ccc(Cl)cc3)CC2)nc2ccccc21`, the inhibition is 23.2% (inactive).

As for `CC(C)NC1CS(=O)(=O)CC1O` (stereo unspecified), the inhibition is -13.7% (inactive).

In the case of `CSc1ccc(S(=O)(=O)Nc2ccc3c4c(cccc24)CC3)cc1`, the inhibition is 17.6% (inactive).

Regarding `CCCc1sc(N/N=C/c2ccccn2)nc1-c1ccc(Br)cc1`, the inhibition was 7.8% (inactive).

In the case of `CCC(C)C1C(C#N)=C(N)Oc2n[nH]c(-c3ccccc3)c21` (stereo unspecified), the inhibition is -12.6% (inactive).

Consider `OC1(c2cccc(C(F)(F)F)c2)CCN(c2ncnc3c2[nH]c2ccc(F)cc23)CC1`, for which the inhibition is 1% (inactive).

As for `C[n+]1ccc(/C=C/c2ccc(Br)cc2)cc1`, the inhibition was 13.1% (inactive).

As to `Cc1nc2sc(C(c3ccc(Cl)cc3)N3CC(C)OC(C)C3)c(O)n2n1` (stereo unspecified), the inhibition is -3% (inactive).

As to `O=C(O)C1CCC(N2C(=O)C3CCCCC3C2=O)CC1` (stereo unspecified), the inhibition was 12.7% (inactive).

For the molecule `NC(=O)COC(=O)CCCc1c[nH]c2ccccc12`, the inhibition was 0.5% (inactive).

As for `CC1Cc2cc(-c3csc(NC(=O)Cc4cccs4)n3)ccc2N1S(C)(=O)=O` (stereo unspecified), the inhibition is 0.8% (inactive).

As to `CCOC(=O)N1CCC(NC(=O)c2ccc(CS(=O)(=O)c3ccc(OC)cc3)o2)CC1`, the inhibition was -7.8% (inactive).

In the case of `COC(=O)Sc1nc(N2CCOCC2)c2c(c1C#N)CC(C)(C)OC2`, the inhibition was -5.9% (inactive).

Take `CCOC(=O)Cn1nnnc1CN(CCc1ccccc1)Cc1cc2cc(CC)ccc2[nH]c1=O`: the inhibition was 3.3% (inactive).

For the molecule `COc1ccc(S(=O)(=O)NC(CC(=O)NCc2ccco2)C(C)C)cc1` (stereo unspecified), the inhibition was 4.6% (inactive).

Regarding `O=C1C(Cc2ccccc2)NC(=S)N1c1ccccc1` (stereo unspecified), the inhibition was 9.6% (inactive).

With `CCN1CCN(Cc2c(C)[nH]c3ccc(C(=O)OC)cc3c2=O)CC1`, the inhibition was 8.5% (inactive).

Turning to `OCCNCC(O)Cn1ccc2ccccc21` (stereo unspecified), the inhibition was -5.6% (inactive).

Regarding `CCC1=NC(c2ccccc2Cl)N(O)C1(C)C` (stereo unspecified), the inhibition is 5.5% (inactive).

Consider `CN1C(=O)C2(NCCc3c2[nH]c2ccccc32)c2ccccc21` (stereo unspecified), for which the inhibition was -19.9% (inactive).

On to `Cc1cccc(OCCN2CSC(=S)N(C)C2)c1`, for which the inhibition is -5.7% (inactive).

As for `COCCCNC(=O)c1cn(C)c(=O)c2cc(OC)c(OC)cc12`, the inhibition is 4.1% (inactive).

As for `CS(=O)(=O)N(CC(=O)NCc1ccccc1Cl)Cc1ccccc1`, the inhibition is -0.5% (inactive).

With `CCOC(=O)Cc1cc(-c2ccc(O)cc2)nc2ccc3ccccc3c12`, the inhibition was 35.9% (inactive).

For `Cc1cccnc1Nc1nc(-c2ccccn2)cs1`, the inhibition was -2.3% (inactive).

For the molecule `O=C1C2CCCN2C(c2cccnc2)N1c1ccc(Cl)c(Cl)c1` (stereo unspecified), the inhibition is -2.6% (inactive).

With `Cc1ccccc1-c1nc(CN2CCC(C(=O)NCCCN3CC(C)CC(C)C3)CC2)c(C)o1` (stereo unspecified), the inhibition was 21.3% (inactive).

In the case of `Cc1ccc(S(=O)(=O)Cn2nnnc2C(C(C)C)N2CCN(c3nc4ccccc4s3)CC2)cc1` (stereo unspecified), the inhibition is -0.6% (inactive).

With `CCOc1ccc(C=O)cc1CN1CCCCC1`, the inhibition was 1.5% (inactive).

On to `CCOc1ccc(-n2c(SCC(=O)Nc3ccc(OC)cc3)nc3c(c2=O)SCC3)cc1`, for which the inhibition is -17% (inactive).

Consider `C/C(Cl)=C\Cn1c(NCCCn2ccnc2)nc2c1c(=O)n(C)c(=O)n2C`, for which the inhibition is 4.7% (inactive).

In the case of `OCCN=C(c1ccccc1)C12CN3CN(CN(C3)C1)C2`, the inhibition was -1.2% (inactive).

As for `C=CCOc1c2ccc(C(=O)NCc3ccccc3OC)cc2nn1C`, the inhibition was 4.3% (inactive).

For the molecule `Cc1cc(NC(=O)NC(=O)c2cccc(OC(F)(F)C(F)F)c2)n[nH]1`, the inhibition was 3.8% (inactive).

With `Oc1ccc(N2CCN(c3ncnc4sc5c(c34)CCC5)CC2)cc1`, the inhibition was 10.1% (inactive).

As for `N=C1C(c2nc3ccccc3s2)=C(O)CN1Cc1ccco1`, the inhibition was -3% (inactive).

With `Cc1cc(C)cc(NC(=O)CC2NCCNC2=O)c1` (stereo unspecified), the inhibition is 7.4% (inactive).

As to `O=C(NCc1ccco1)c1ccc(CS(=O)(=O)Cc2ccc(Cl)cc2)o1`, the inhibition was -2.1% (inactive).

Consider `CCOc1ccc(C(=O)C(c2ccccc2)N2CCOCC2)cc1` (stereo unspecified), for which the inhibition is -17.7% (inactive).

`CC1Oc2ccccc2C=C1/C=C1/SC(N2CCOCC2)=NC1=O` (stereo unspecified): the inhibition is -2.1% (inactive).

As to `O=C(Nc1ccccc1)/C(=C\c1ccc2c(c1)OCO2)NC(=O)c1ccco1`, the inhibition was -3% (inactive).

On to `COc1ccc(OC)c(C2CC(=O)c3c([nH]c(C(=O)OC(C)C)c3C)C2)c1` (stereo unspecified), for which the inhibition was 35.5% (inactive).

In the case of `CSc1nnc2n(-c3ccccc3)c(=O)c3c4c(sc3n12)CCC4`, the inhibition was -8.1% (inactive).

Take `C=C(C)c1cccc(C(C)(C)NC(=O)Nc2ncccn2)c1`: the inhibition was -2.7% (inactive).

Take `O=C(C1CCC1)N1CCc2cc(S(=O)(=O)Nc3ccc4c(c3)OCCO4)ccc21`: the inhibition is -2.3% (inactive).

As for `C(=N\Nc1nc2ccccc2s1)/c1cccs1`, the inhibition was 5.1% (inactive).

For the molecule `Nc1nnc(SCC(=O)NCc2ccc3c(c2)OCO3)s1`, the inhibition was 0.2% (inactive).

Regarding `COc1ccc(Cn2nnnc2C(c2cccs2)N2CCSCC2)cc1` (stereo unspecified), the inhibition was -1.3% (inactive).

With `COc1ccc(OC)c2sc(NC(=O)CCS(=O)(=O)c3ccccc3)nc12`, the inhibition is 23% (inactive).

In the case of `O=C(O)c1ccccc1Nc1ccccc1C(=O)O`, the inhibition was 0.6% (inactive).

In the case of `O=C(Cc1ccc(-n2cccc2)cc1)NC1CCCCCC1`, the inhibition was 5.8% (inactive).

With `Clc1ccc(C2=Nn3c(nnc3-c3cccnc3)SC2)s1`, the inhibition was 13% (inactive).

With `COc1cc2[nH]cc(C(=O)NCCc3ccccc3)c(=O)c2cc1OC`, the inhibition is -5.6% (inactive).

As for `CCOc1cc(NC(=O)c2ccco2)c(OCC)cc1NC(=O)CCC(=O)NCc1cccnc1`, the inhibition is 3.7% (inactive).

For the molecule `CCOc1ccc2ccccc2c1/C=N/n1cncn1`, the inhibition is 2.4% (inactive).

With `C=C1N2CCC(CC2)C1(O)c1ccccc1C` (stereo unspecified), the inhibition is -7.5% (inactive).

Turning to `CCc1cccc(CC)c1NC(=O)C1SC(=Nc2ccccc2C)C(c2nc3ccccc3s2)=C1N` (stereo unspecified), the inhibition is 3.9% (inactive).

On to `C=CCNC(=O)c1nn2cccnc2c1Cl`, for which the inhibition is 3.3% (inactive).

In the case of `O=[N+]([O-])c1cnccc1Nc1ccc(F)cc1`, the inhibition was 15.4% (inactive).

On to `CCOC(=O)Cc1csc(NC(=O)COc2ccc(N(C)S(=O)(=O)c3ccc(C)cc3)cc2)n1`, for which the inhibition was -1.3% (inactive).

Consider `O=S(=O)(Nc1ccc(-n2cccc2)cc1)c1ccccc1`, for which the inhibition was 11.9% (inactive).

Take `CN(Cc1ccccc1)S(=O)(=O)c1ccc(NC(=S)NC(=O)C2CCCC2)cc1`: the inhibition is 17.2% (inactive).

In the case of `O=C1CC(c2ccccc2)Cc2nc3ncnn3cc21` (stereo unspecified), the inhibition is -11.3% (inactive).

For `Cc1ccc(-n2nc3ccc(NC(=O)/C=C/c4ccco4)cc3n2)cc1C`, the inhibition was 14% (inactive).

Turning to `CC1(C)Cc2c(oc3ncn4ncnc4c23)CO1`, the inhibition is -8% (inactive).

Consider `Cc1nc2ccccc2n1CCCOc1ccccc1`, for which the inhibition is -0.7% (inactive).

For the molecule `COc1cc(C2Nc3ccc4ncccc4c3C3=C2C(=O)CCC3)cc(OC)c1O` (stereo unspecified), the inhibition is -11.9% (inactive).

As to `Cc1nc(S(=O)(=O)N(C)Cc2ccccc2)c(C#N)c(C)c1Cl`, the inhibition was 1.7% (inactive).

Still in this assay, the particulars now being: TNFa-stimulated cells, VCAM1 expression imaging; cell count; at 10 µM; stronger effect = lower value.
`O=C(COc1ccccc1-c1ccccc1)N/N=C/c1cccc2ccccc12` yielded a cell count of 87.5%.

`CCOC(=O)Cc1cc(-c2ccc(O)cc2)nc2ccc3ccccc3c12` returned a cell count of 100%.

The values are drawn from PubChem BioAssay AID1013 (Columbia University Molecular Screening Center, 2008).
